This note sets out measurements from US20230047816A1 (priority 2018, published 2023).

Experiment [1] concerns mouse primary cortical neurons. In words: Mitochondrial ROS (MitoSox) upon excitotoxic stimuli. Format: cell-based. The following applies: NMDA and glutamate excitotoxic models; inhibitor 0.01 μM. The procedure: To directly test the ability of the PFKFB3 inhibitor, AZ67 and Compound 1, to protect against the damage caused by excitotoxic stimuli, mouse primary cortical neurons were subjected to a short-term exposure to NMDA or glutamate (100 μM for 10 minutes), a well-known excitotoxic stimuli (Almeida and Bolahos, 2001). For NMDAR activation, neurons at 8 days in vitro were incubated with 100 μM glutamate (plus 10 μM glycine) or 100 μM NMDA (plus 10 μM glycine) for 10 minutes. Neurons were then washed and further incubated in culture medium with the PFKFB3 inhibitors for 24 hours. A colorimetric NADP/NADPH assay kit (Abcam) was used. Cells were resuspended in 500 μl of NADP/NADPH extraction buffer, vortexed and centrifuged at 14,000 rpm for 5 minutes to remove insoluble material. The supernatant was used for NADPH +plus NADP+ measurement. NADPH was determined in 200 μl of the supernatant, after heatinged […] 60° C. for 30 minutes to decompose NADP+. Actual NADP and NADPH+ concentrations were calculated by extrapolating values to a NADPH standard curve (0-100 pmol/well).
Mitochondrial ROS was detected using the fluorescent probe MitoSox™ (Life Technologies). […] MitoSox™ fluorescence was assessed by flow cytometry and expressed in arbitrary units.

For experiment [2], the system named is neurons from Cln7 knock out (KO) mice. In words: In vitro model of Batten disease, glycolytic flux. Format: cell-based, mouse. The note with it: 10 nM, 24 hours. On the procedure:
Primary cultures of C57BL/6J WT and Cln7Δex2 mice cortical neurons were prepared from fetal animals of 14.5 days of gestation, seeded at 1.8·10^5 cells/cm2 in plastic plates coated with poly-D-lysine […] and incubated in Neurobasal (Life Technologies) supplemented with 2 mM glutamine, 5 mM of glucose, 0.25 mM pyruvate and 2% B27 supplement (Life Technologies). Cells were incubated at 37° C. in a humidified 5% CO2-containing atmosphere. At 72 hours after plating, medium was replaced using Neurobasal (Life Technologies) supplemented with 2 mM glutamine, 5 mM glucose, 0.25 mM pyruvate and 2% B27 supplement (Life Technologies) minus antioxidants (MAO; i.e., lacking vitamin E, vitamin E acetate, superoxide dismutase, catalase, and glutathione). Six days after the plating medium was replaced again. Cells were used at day 9.
Glycolytic flux was measured in 8 cm2 flasks of adherent cells at 60-70% confluence containing a central microcentrifuge tube with 1 ml H2O for 3H2O equilibration. […]. […] Glycolytic flux was measured by assaying the rate of 3H2O production from [3-3H]glucose by incubating cells with 5μ Ci D-[3-3H]glucose in KRPG buffer per flask for 120 min, as previously described [Vicente-Gutierrez, C. et al. Astrocytic mitochondrial ROS modulate brain metabolism and mouse behavior. […] The 3H2O was then measured by liquid scintillation counting (Tri-Carb 4810 TR, PerkinElmer). […]

The test system of experiment [3] is MCAO model of brain ischemia. In words: MCAO model of brain ischemia, rota-rod test. In kind it is in vivo, C57BL/6-J mice. The following applies: 60 mg/kg bolus via jugular vein after reperfusion; 30 mins occlusion; test 24 hours after MCAO. The procedure: For the MCAO model of brain ischemia, 10 weeks-old male C57BL/6-J mice were used (n=8 animals per condition) following a published protocol (1,2). Mice were anesthetized with 4% (vol/vol) Sevoflurane in a mixture of ⅓ O2 and ⅔ N2O using a vaporizer. After the induction of anesthesia, Sevoflurane was reduced to 3% (vol/vol). The body temperature was maintained at 36.5° C. during the surgery. A laser-Doppler flow probe attached to a flowmeter was located over the thinned skull in the MCAO area (4 mm lateral to bregma) to monitor the relative cerebral brain flow during the experiment. Under operating microscope, the common, external and internal carotid arteries were dissected from connective tissue through a midline neck incision. The common carotid artery (CCA) was carefully dissected from the surrounding nerves with caution to avoid harming of the vagal nerve. A suture monofilament was introduced from the lumen of the external carotid artery (ECA) into the internal carotid artery (ICA) to a distance of 9-10 mm beyond the CCA bifurcation, in order to occlude the origin of middle cerebral artery (MCA). The filament was removed 30 mins after occlusion. AZ67 or compound 1 (60 mg/kg of body weight) or vehicle were administered in a bolus (200 μl) via the jugular vein immediately after reperfusion. […] The latency to fall was determined and expressed in seconds.
For orientation: Falling from the rotarod earlier than controls is read as motor impairment.

“Also recorded” adds a separate entry of the source.

With `Cc1noc(C)c1Cn1cc(C#N)c2cc(Oc3ccc(NC(=O)[C@@H]4CCCN4)cc3)ccc21` [AZ67, (2S)-N-[4-({3-cyano-1-[(3,5-dimethyl-1,2-oxazol-4-yl)methyl]-1H-indol-5-yl}oxy)phenyl]pyrrolidine-2-carboxamide], in experiment [1], the “increase in mitochondrial ROS” value is recorded as “significantly prevented the increase in mitochondrial ROS; also recorded: prevent mitochondrial ROS increase”. The “rate of glycolysis (glycolytic flux)” value in experiment [2] was “reduce the excessive glycolysis to normal levels”. The “improvement in rota-rod test performance (latency to fall)” value in experiment [3] is approximately 50%.
